Legend:
[1] = test system: PTZ-evoked seizures in CD-1 male mice; experiment: PTZ acute seizure model, combination of Compound 1 with Compound A (Example 2); type: in vivo; settings: 30 minutes before PTZ 120 mg/kg s.c., n=12
Description: The combination of Compound 1 with Compound A for the treatment of seizures was investigated using a PTZ acute seizure model. Accordingly, the effect on PTZ-evoked seizures was evaluated for a vehicle control, Compound A alone, Compound 1 alone, and a combination of Compound 1 and Compound A.
Six-week old CD-1 male mice (25-35 g) were used in the following experiment. Study groups (n=12 for each group) were as follows: • (1) 35% 2-hydroxypropyl-beta-cyclodextrin (HPBCD), the vehicle for Compound 1 and Compound A (10 ml/kg, p.o.); • (2) Compound A (1 mg/kg, p.o.); • (3) Compound A (3 mg/kg, p.o.); • (4) Compound A (6 mg/kg, p.o.); • (5) Compound A (10 mg/kg, p.o); • (6) Compound 1 (10 mg/kg, p.o.); and • (7) Compound A (1 mg/kg, p.o.) and Compound 1 (10 mg/kg, p.o.).
In each instance, 30 minutes after administration of the vehicle or compound(s), PTZ was administered at 120 mg/kg, s.c., 10 ml/kg.
Dosing solutions were made from stock solutions of the highest dose and diluted down for the lower doses. All solutions were protected from light and made fresh daily for two experiment days. […]
Latency and total numbers of clonic/tonic seizures were recorded for 30 minutes, and latency to death was also recorded up to 30 minutes. […] The latency and number of seizures for each mouse was recorded by an individual blinded to the treatment. […]

[2] = evening versus morning dosing; Khodadoustan et al. 2017; cited from earlier work
[3] = evening versus morning administration; as disclosed in WO 2022/232104; cited from earlier work

## CCOC(F)(F)c1nnc2ccc(-c3cnc(OCC(F)(F)F)c(F)c3)cn12 [Compound A]
[1]; Compound A 1 mg/kg p.o. alone, p<0.01 versus combination
  seizure-free mice of the twelve mice: none

## CCOC(=O)C1=C(COCCN)NC(C)=C(C(=O)OC)C1c1ccccc1Cl (stereo not shown) [amlodipine besylate]
[2]
  Cmax, evening administration compared to morning dosing: increased
  Tmax, evening administration compared to morning dosing: reduced

## COC[C@@]1(O)CC[C@@]2(C)[C@@H](CC[C@@H]3[C@@H]2CC[C@]2(C)[C@@H](C(=O)Cn4ccnc4)CC[C@@H]32)C1 [Compound 1, 3α-Hydroxy-3β-methoxymethyl-21-(1′-imidazolyl)-5α-pregnan-20-one]
[1]; Compound 1 10 mg/kg p.o. alone, n.s. versus combination
  seizure-free mice of the twelve mice: 3
[3]
  maximum observed plasma concentration (Cmax), evening compared to morning administration: reduces
  overall drug exposure (AUCinf), evening compared to morning administration: similar
  time to maximum plasma concentration (tmax), evening compared to morning administration: increases

From patent US20250345345A1, “METHODS FOR THE TREATMENT OF NEUROLOGICAL DISORDERS” (Praxis Precision Medicines, Inc., priority 2022, published 2025)
